Measurements: patent publication US20220241378A1, “COMPOSITIONS AND METHODS FOR TREATMENT OF CHRONIC GRANULOMATOUS DISEASE” (priority 2019, published 2022)

Experiments:
[1] = test system: p47phox-/- mice infected intranasally with A. fumigatus conidia; assay: Survival of p47phox-/- mice infected intranasally with A. fumigatus conidia; type: in vivo
Experimental: To determine whether Tβ4 ameliorates tissue and immune pathologies in CGD mice the inventors of the present disclosure conducted experiments measuring the effect of Tβ4 in mice with aspergillosis and colitis. Specifically, mice were monitored for fungal growth, antifungal activity of effector cells, survival, lung histopathology, innate and adaptive Th immunity. […] Gross lung pathology and histological examination was conducted on p47phox-/- mice. […] Conversely, Tβ4 deficiency by means of siTβ4 administration promoted lung pathology in C57BL/6 mice (FIG. 10B).
Viable conidia from the A. fumigatus Af293 strain were obtained as described (De Luca et al., 2012). Mice were anesthetized in a plastic cage by inhalation of 3% isoflurane (Forane Abbot) in oxygen before intranasal instillation of 2×10^7 resting conidia/20 μl saline. For survival curves, p47^phox-/- mice were challenged with […] conidia/20 μl saline. […] Fungal burden was determined by qPCR and expressed as conidial equivalents (CE). […] Fungal burden was quantified by qPCR by using the sequences for the multicopy 18S ribosomal DNA gene. […]
GraphPad Prism 6.01 program (GraphPad Software) was used for analysis. Data are expressed as mean ±SD. Statistical significance was calculated by two-way ANOVA (Tukey's or Bonferroni's post hoc test) for multiple comparisons. […] Cell fluorescence intensity was measured by using the ImageJ software.

[2] = test system: monocytes from CGD patients; assay: Monocytes from CGD patients exposed to Aspergillus conidia in vitro: LC3B and HIF-1α immunofluorescence; type: cell-based, human
Experimental: Next, macrophages were purified from lungs of C57BL/6 and p47phox-/- mice and pulsed in vitro with A. fumigatus conidia in the presence of Tβ4.
Defective Tβ4 expression (FIG. 2G) and restoration of HIF-1α expression upon administration of Tβ4 (FIG. 2H) was also observed in the colon. […] Immunoblotting, normalization was performed on mouse β-actin or GAPDH and corresponding pixel density or ratio is depicted. For immunofluorescence, nuclei were counterstained with DAPI. Photographs were taken with a high-resolution microscope (Olympus BX51), 40× and 100× magnification. LC3 mean fluorescence intensity (MFI) was measured with the ImageJ software. *p<0.05, p47^phox-/- vs C57BL/6 mice. None, unpulsed and untreated cells. Ctrl, Recombinant (r) Tβ4 used as positive control.
RAW264.7 cells (ATCC) were grown in supplemented RPMI medium. […] Cells were treated as above and evaluated for cellular autophagy markers. […] Cells were assessed for LC3 and HIF-1α expression by immunofluorescence.
For immunofluorescence, monocytes from CGD patients or controls were grown in supplemented RPMI and placed on microscope glass slides at 37° C. for adhesion. […] Images were acquired using a fluorescence microscope (BX51, Olympus) and the analySIS image processing software (Olympus).

Substance: Thymosin β4 [Tβ4]
- mice survived at the time when all untreated mice had died ([1]; p47phox-/- mice treated for 5 days (FIG. 9)): more than 50%
- survival of infected mice ([1]; p47phox-/- mice treated for 5 days vs untreated (FIG. 9)): significantly increased
- HIF-1α expression ([2]; monocytes from CGD patients challenged with Aspergillus conidia (FIG. 2I)): increased
- LC3B expression ([2]; monocytes from CGD patients, pre-treated, stimulated 2 hours with the fungus (FIG. 1E)): increased
